# pKi: −log10 of the molar value.
# Legend:
# Endochitinase B1 = Endochitinase B1 (Aspergillus fumigatus, UniProt Q873X9); experiment: Inhibitory activity against Chitinase B1 (AfChiB1) using fuorometric assay with 4-methylumbelliferyl-b-D-N,N0-diacetylchitobiose as substrate
# [1] = Maximum rate of metabolism of compound; format: ADME; settings: aspergillus fumigatus
# [2] = test system: CNC(=O)NC(=N)NCCC[C@@H]1NC(=O)[C@@H](C)NC(=O)C[C@@H](C(=O)O)NC(=O)C[C@@H](C(=O)O)NC(=O)[C@H](Cc2ccccc2)N(C)C1=O; experiment: Michaelis constant for compound binding to Chitinase B1; settings: Aspergillus fumigatus
Compound,pKi (Endochitinase B1),Vmax [1] [nM/s],Km [2] [µM]
CNC(=O)NC(=N)NCCC[C@@H]1NC(=O)[C@@H](C)NC(=O)C[C@@H](C(=O)O)NC(=O)C[C@@H](C(=O)O)NC(=O)[C@H](Cc2ccccc2)N(C)C1=O [ARGIFIN],7.77,2.7,
Endochitinase B1 (Aspergillus fumigatus) (from UniProt Q873X9),,,10.4

# — ChEMBL document CHEMBL1143458, “An efficient synthesis of argifin: a natural product chitinase inhibitor with chemotherapeutic potential” (Bioorg Med Chem Lett, 2005)
